According to US20220288057A1, “CONJOINT THERAPY FOR TREATING SEIZURE DISORDERS” (XENON PHARMACEUTICALS INC., priority 2021, published 2022):
Several values for one entry are separate records, joined by “and”; a condition that tells them apart may be missing. Equal entries are not always repeated. Where two headings read alike, the source gives them in different places. Marks after values point to notes of the source that are not given here.

How the values were obtained:
[1] = Plasma and brain concentrations after MES testing (UHPLC-ESI-MS/MS); settings: for concentration at 2 h: mouse, in vivo;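 on all read-outs here: brain and plasma were sampled from mice right after the efficacy test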
[2] = system: 6 Hz psychomotor seizures in CF-1 mice; assay: Mouse 6 Hz psychomotor seizure assay (34 milliampere, 3 s); assay type: in vivo
Description: It was evaluated whether the combination of both compounds is favorable or unfavorable for efficacy by dosing Compound A and Levetiracetam alone and in combination, each at a dose that produces sub-maximal efficacy on its own. […] Plasma and brain samples were analyzed to gain an understanding of how the combination of Compound A and Levetiracetam may affect pharmacokinetics and pharmacodynamics. […] 6 Hz Psychomotor Seizure Assay: […] The animal was then securely restrained and a pair of electrodes was applied to the eyes (Electro Convulsive Therapy Unit 57800, Ugo Basile). […] Data Processing and Analysis: Statistical data analysis was performed using GraphPad Prism (version 8.2.1). Dose-response data was analyzed using a Kruskal-Wallis test, followed by Dunn's multiple comparisons. […] Dose- and concentration-response curves were generated using the Hill Langmuir equation: […]

[3] = Clinical observations / behavioral signs in AC-MES studies; assay type: in vivo, mouse; settings: male, CF-1, mouse, in vivo, read-out: plasma concentration of individual mouse showing behavioral signs (tremors, decreased activity, splayed hindlimbs)
Description: Any qualitative changes from normal behavior were recorded.
Five oral (PO) doses of Compound A were each tested in the AC-MES model. Thirty minutes after administration of Compound A at 1 mg/kg (n=8), 3 mg/kg (n=8), 5 mg/kg (n=16), 7.5 mg/kg (n=7), and 10 mg/kg (n=17) via oral gavage to male CF-1 mice (body weights 28.2 to 43.8 g), the mice underwent a 60 Hz corneal electrical stimulus (0.2 seconds duration, 40 mA). This stimulus elicited a tonic hindlimb extension in all vehicle-dosed animals. […] An observational neurological assessment (qualitative test) was also conducted at the time of testing as a tolerability screen. Terminal plasma and brain samples were collected from all animals to obtain the levels of Compound A concentration, and to understand the relationship between efficacy and drug concentration.
The Blinding and Randomization, Clinical Observations, AC-MES Assay, Sample Collection and Preparation, Plasma and Brain Samples Analysis, and Bioanalysis Procedures in Example 4 were identical to those used in Example 2.

[4] = analyte Compound A, 1 mg/kg + 2 mg/kg Phenytoin
[5] = analyte Compound A, 1 mg/kg PO + 100 mg/kg Valproic Acid IP
[6] = analyte Compound A, 2.5 mg/kg + 2 mg/kg Phenytoin

Question: For `Cc1cc(N2CCc3cc(F)ccc3C2)cc(C)c1NC(=O)CC(C)(C)C` [Compound A, N-[4-(6-fluoro-3,4-dihydro-1H-isoquinolin-2-yl)-2,6-dimethylphenyl]-3,3-dimethylbutanamide], which “Plasma concentration, Mean” value ([1]; analyte Compound A, 0.75 mg/kg + 2 mg/kg Phenytoin) is on record?
Answer: 0.04 μM and 16.0 ng/mL

Question: What about the “Brain concentration, Mean” value [1, 4] of the same molecule?
Answer: 100 nM

Question: What about the “Plasma concentration, Mean” value [1, 4] of the same molecule?
Answer: 0.05 μM and 19.0 ng/mL

Question: What about the “Brain concentration, Mean” value [1, 5] of the same molecule?
Answer: 97 nM

Question: What about the “Plasma concentration, Mean” value [1, 5] of the same molecule?
Answer: 0.042 μM and 15 ng/mL

Question: And the “Brain concentration, Mean” value [1, 6]?
Answer: 510 nM

Question: And the “Plasma concentration, Mean” value [1, 6]?
Answer: 58.4 ng/mL and 0.16 μM

Question: And the concentration at 2 h ([1]; 1 mg/kg, plasma concentration, Compound A 1 mg/kg, mean±SEM, n=15)?
Answer: 66 ± 14 nM

Question: And the concentration at 2 h ([1]; Brain concentration, Mean, analyte Compound A, 0.25 mg/kg + 2 mg/kg Phenytoin)?
Answer: 50 nM and 18.4 ng/g

Question: And the concentration at 2 h ([1]; Brain concentration, Mean, analyte Compound A, 0.75 mg/kg + 2 mg/kg Phenytoin)?
Answer: 150 nM and 56.7 ng/g

Question: And the concentration at 2 h ([1]; Brain concentration, Mean, analyte Compound A, 1 mg/kg + 2 mg/kg Phenytoin)?
Answer: 100 nM and 37 ng/g

Question: And the concentration at 2 h ([1]; Brain concentration, Mean, analyte Compound A, 1 mg/kg PO + 100 mg/kg Valproic Acid IP)?
Answer: 97 nM and 36 ng/g

Question: What about the concentration at 2 h ([1]; Brain concentration, Mean, analyte Compound A, 2.5 mg/kg + 2 mg/kg Phenytoin) of the same molecule?
Answer: 510 nM and 186 ng/g

Question: What about the concentration at 2 h ([1]; Plasma concentration, Mean, analyte Compound A, 0.25 mg/kg + 2 mg/kg Phenytoin) of the same molecule?
Answer: 20 nM and 5.6 ng/mL

Question: And the concentration at 2 h ([1]; Plasma concentration, Mean, analyte Compound A, 0.75 mg/kg + 2 mg/kg Phenytoin)?
Answer: 40 nM and 16 ng/mL

Question: What about the concentration at 2 h ([1]; Plasma concentration, Mean, analyte Compound A, 1 mg/kg + 2 mg/kg Phenytoin) of the same molecule?
Answer: 50 nM and 19 ng/mL

Question: And the concentration at 2 h ([1]; Plasma concentration, Mean, analyte Compound A, 1 mg/kg PO + 100 mg/kg Valproic Acid IP)?
Answer: 42 nM and 15 ng/mL

Question: What about the concentration at 2 h ([1]; Plasma concentration, Mean, analyte Compound A, 2.5 mg/kg + 2 mg/kg Phenytoin) of the same molecule?
Answer: 160 nM and 58.4 ng/mL

Question: And the concentration at 2 h ([1]; mean total brain concentration, analyte Compound A, 1 mg/kg PO + Valproic Acid 30 mg/kg IP)?
Answer: 75 nM and 28 ng/g

Question: And the concentration at 2 h ([1]; mean total brain concentration, analyte Compound A, 1 mg/kg PO + Valproic Acid 56 mg/kg IP)?
Answer: 117 nM and 43 ng/g

Question: What about the concentration at 2 h ([1]; mean total plasma concentration, analyte Compound A, 1 mg/kg PO + Valproic Acid 30 mg/kg IP) of the same molecule?
Answer: 38 nM and 14 ng/mL

Question: And the concentration at 2 h ([1]; mean total plasma concentration, analyte Compound A, 1 mg/kg PO + Valproic Acid 56 mg/kg IP)?
Answer: 18 ng/mL and 50 nM

Question: And the concentration at 2 h ([1]; po, 0.25 mg/kg, Brain concentration, Mean, Compound A 0.25 mg/kg PO 2 h alone (phenytoin study))?
Answer: 40 nM and 14.8 ng/g

Question: What about the concentration at 2 h ([1]; po, 0.25 mg/kg, Plasma concentration, Mean, Compound A 0.25 mg/kg PO 2 h alone (phenytoin study)) of the same molecule?
Answer: 10 nM and 4.3 ng/mL

Question: And the concentration at 2 h ([1]; po, 0.75 mg/kg, Brain concentration, Mean, Compound A 0.75 mg/kg PO 2 h alone (phenytoin study))?
Answer: 120 nM and 43.8 ng/g

Question: What about the concentration at 2 h ([1]; po, 0.75 mg/kg, Plasma concentration, Mean, Compound A 0.75 mg/kg PO 2 h alone (phenytoin study)) of the same molecule?
Answer: 11.7 ng/mL and 30 nM

Question: And the concentration at 2 h ([1]; po, 1 mg/kg, Brain concentration, Mean, Compound A 1 mg/kg PO 2 h alone (levetiracetam study))?
Answer: 60 nM and 20.9 ng/g

Question: What about the concentration at 2 h ([1]; po, 1 mg/kg, Brain concentration, Mean, Compound A 1 mg/kg PO 2 h alone (phenytoin study)) of the same molecule?
Answer: 100 nM and 35 ng/g

Question: What about the concentration at 2 h ([1]; po, 1 mg/kg, Brain concentration, Mean, Compound A 1 mg/kg PO 2 h alone (valproic acid study)) of the same molecule?
Answer: 160 nM and 59 ng/g

Question: What about the concentration at 2 h ([1]; po, 1 mg/kg, Plasma concentration, Mean, Compound A 1 mg/kg PO 2 h alone (levetiracetam study)) of the same molecule?
Answer: 30 nM and 11.1 ng/mL

Question: What about the concentration at 2 h ([1]; po, 1 mg/kg, Plasma concentration, Mean, Compound A 1 mg/kg PO 2 h alone (phenytoin study)) of the same molecule?
Answer: 50 nM and 17 ng/mL

Question: What about the concentration at 2 h ([1]; po, 1 mg/kg, Plasma concentration, Mean, Compound A 1 mg/kg PO 2 h alone (valproic acid study)) of the same molecule?
Answer: 66 nM and 24 ng/mL

Question: And the concentration at 2 h ([1]; po, 2.5 mg/kg, Brain concentration, Mean, Compound A 2.5 mg/kg PO 2 h alone (phenytoin study))?
Answer: 390 nM and 144 ng/g

Question: And the concentration at 2 h ([1]; po, 2.5 mg/kg, Plasma concentration, Mean, Compound A 2.5 mg/kg PO 2 h alone (phenytoin study))?
Answer: 120 nM and 45.1 ng/mL

Question: What about the ED20 ([2]; Compound A PO 1 h, Study 3A dose response curve) of the same molecule?
Answer: 4 mg/kg and 4.13 mg/kg

Question: And the ED50 ([2]; Mus musculus, Compound A PO 1 h, Study 3A dose response curve)?
Answer: 6.48 mg/kg

Question: What about the EC50 ([2]; Mus musculus, Compound A PO 1 h, Study 3A, read-out: brain EC50) of the same molecule?
Answer: 540 nM

Question: And the EC50 ([2]; Mus musculus, Compound A PO 1 h, Study 3A, read-out: plasma EC50)?
Answer: 350 nM

Question: What about the “Fraction Seizing” value ([2]; Studies 3B+3C combined, Compound A 4 mg/kg PO 1 h alone) of the same molecule?
Answer: 13/14*

Question: What about the “Fraction Seizing” value ([2]; Study 3A, Compound A 1 mg/kg PO, 1 h) of the same molecule?
Answer: 8/8

Question: And the “Fraction Seizing” value ([2]; Study 3A, Compound A 3 mg/kg PO, 1 h)?
Answer: 8/8

Question: And the “Fraction Seizing” value ([2]; Study 3A, Compound A 5 mg/kg PO, 1 h)?
Answer: 5/8

Question: What about the “Fraction Seizing” value ([2]; Study 3A, Compound A 8 mg/kg PO, 1 h) of the same molecule?
Answer: 3/8

Question: What about the “Fraction Seizing” value ([2]; Study 3B, Compound A 4 mg/kg PO 1 h alone) of the same molecule?
Answer: 8/8

Question: What about the “Fraction Seizing” value ([2]; Study 3C, Compound A 4 mg/kg PO 1 h alone) of the same molecule?
Answer: 5/6*

Question: What about the “animals protected from seizing” value ([2]; Study 3C, Compound A 4 mg/kg PO alone) of the same molecule?
Answer: 1/7

Question: What about the concentration at 30 min ([3]; 7.5 mg/kg, Study 2B, Compound A 7.5 mg/kg group) of the same molecule?
Answer: 746 nM

Question: What about the concentration at 30 min ([3]; 7.5 mg/kg, Study 4B, Compound A 7.5 mg/kg group) of the same molecule?
Answer: 750 nM

Question: And the concentration at 30 min ([3]; 10 mg/kg, Study 2A, Compound A 10 mg/kg group)?
Answer: 391 nM

Question: What about the concentration at 30 min ([3]; 10 mg/kg, Study 4A, Compound A 10 mg/kg group) of the same molecule?
Answer: 390 nM

Question: What about the concentration at 30 min ([3]; Study 2B, Compound A 10 mg/kg group, two mice) of the same molecule?
Answer: 608 nM
